Measured values from patent publication US10927105B1 (Lundbeck La Jolla Research Center, Inc., priority 2017, dated 2021).

What was measured:
FAAH [1] = molecular target: FAAH (Homo sapiens (Human), UniProt O00519); assay: In vitro competitive activity-based protein profiling (human prefrontal cortex membrane fractions, FP-Rh probe), FAAH band; settings: for FAAH % inh. 1 μM (human) / IC50: human prefrontal cortex membrane fractions; for IC50: read-out: FAAH IC50 (μM) (human)
Experimental: (§1) Biological Evaluation In Vitro Competitive Activity-Based Protein Profiling.
(§2) Proteomes (mouse brain membrane fraction for mouse assays; human prefrontal cortex membrane fractions for human assays) (50 mL, 1.0 mg/mL total protein concentration) were preincubated with varying concentrations of inhibitors at 37° C. After 30 min, FP-Rh (1.0 mL, 50 mM in DMSO) was added and the mixture was incubated for another 30 min at 37° C. Reactions were quenched with SDS loading buffer (15 μL-4×) and run on SDS-PAGE.

FAAH [2] = molecular target: T1, FAAH (Mus musculus (Mouse), UniProt O08914); assay: In vitro competitive activity-based protein profiling (mouse brain membrane fraction, FP-Rh probe), FAAH band
Experimental: as §1, §2

MAGL [3] = molecular target: T2, MAGL (Mus musculus (Mouse), UniProt O35678); assay: Mouse brain proteomes from inhibitor treated mice (oral gavage, sacrificed 4 h after administration, brain proteomes analyzed); format: in vivo; settings: 5 mg/kg oral gavage
FAAH [4] = molecular target: T1, FAAH; assay: Mouse brain proteomes from inhibitor treated mice (oral gavage, sacrificed 4 h after administration), FAAH; format: in vivo; settings: 5 mg/kg oral gavage
MAGL [5] = molecular target: MAGL (Homo sapiens (Human), UniProt Q99685); assay: In vitro competitive activity-based protein profiling (human prefrontal cortex membrane fractions, FP-Rh probe), MAGL band; settings: for MAGL % inh. 1 μM (human) / IC50: human prefrontal cortex membrane fractions; for IC50: read-out: MAGL IC50 (μM) (human)
Experimental: as §1, §2

MAGL [6] = molecular target: T2, MAGL; assay: In vitro competitive activity-based protein profiling (mouse brain membrane fraction, FP-Rh probe), MAGL band
Experimental: as §1, §2

FAAH [7] = molecular target: T1, FAAH; assay: Mouse brain proteomes from inhibitor treated mice (oral gavage, sacrificed 4 h after administration, brain proteomes analyzed), FAAH; format: in vivo; settings: 5 mg/kg oral gavage, read-out: FAAH % inh. 5 mg/kg (mouse)

T1 sequence (O08914 whole entry): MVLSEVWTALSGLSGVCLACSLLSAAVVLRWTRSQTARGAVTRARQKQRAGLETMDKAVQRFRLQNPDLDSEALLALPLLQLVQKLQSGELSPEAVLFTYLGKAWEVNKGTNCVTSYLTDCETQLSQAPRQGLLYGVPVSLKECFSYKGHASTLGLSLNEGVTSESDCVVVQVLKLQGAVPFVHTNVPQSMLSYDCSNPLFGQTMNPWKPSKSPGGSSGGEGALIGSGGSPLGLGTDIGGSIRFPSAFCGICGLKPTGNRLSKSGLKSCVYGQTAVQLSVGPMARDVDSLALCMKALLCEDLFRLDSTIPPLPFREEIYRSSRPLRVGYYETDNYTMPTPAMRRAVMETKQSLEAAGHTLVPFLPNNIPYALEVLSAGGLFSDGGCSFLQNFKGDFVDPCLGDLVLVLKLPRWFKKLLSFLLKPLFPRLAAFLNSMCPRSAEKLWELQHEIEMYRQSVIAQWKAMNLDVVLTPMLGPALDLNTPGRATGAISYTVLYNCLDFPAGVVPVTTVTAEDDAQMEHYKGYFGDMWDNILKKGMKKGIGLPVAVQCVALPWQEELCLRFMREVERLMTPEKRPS
Sequence of FAAH (Homo sapiens (Human), UniProt O00519) (O00519 whole entry): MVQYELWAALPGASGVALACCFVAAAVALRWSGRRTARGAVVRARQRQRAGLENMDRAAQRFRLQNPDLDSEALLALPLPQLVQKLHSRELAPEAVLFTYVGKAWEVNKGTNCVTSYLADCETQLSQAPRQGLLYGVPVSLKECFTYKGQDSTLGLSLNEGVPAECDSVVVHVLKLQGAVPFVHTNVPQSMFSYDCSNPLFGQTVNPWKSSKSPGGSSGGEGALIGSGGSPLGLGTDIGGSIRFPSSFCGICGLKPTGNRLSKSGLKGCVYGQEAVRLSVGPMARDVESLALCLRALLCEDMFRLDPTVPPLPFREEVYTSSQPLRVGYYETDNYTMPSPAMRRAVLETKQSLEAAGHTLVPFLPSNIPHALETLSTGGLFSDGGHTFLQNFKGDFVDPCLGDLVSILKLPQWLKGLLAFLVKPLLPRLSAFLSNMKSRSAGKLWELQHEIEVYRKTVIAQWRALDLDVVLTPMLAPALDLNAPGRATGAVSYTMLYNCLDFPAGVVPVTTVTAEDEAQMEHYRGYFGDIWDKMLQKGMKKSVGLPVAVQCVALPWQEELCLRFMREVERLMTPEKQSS
Sequence of MAGL (Homo sapiens (Human), UniProt Q99685) (Q99685 whole entry): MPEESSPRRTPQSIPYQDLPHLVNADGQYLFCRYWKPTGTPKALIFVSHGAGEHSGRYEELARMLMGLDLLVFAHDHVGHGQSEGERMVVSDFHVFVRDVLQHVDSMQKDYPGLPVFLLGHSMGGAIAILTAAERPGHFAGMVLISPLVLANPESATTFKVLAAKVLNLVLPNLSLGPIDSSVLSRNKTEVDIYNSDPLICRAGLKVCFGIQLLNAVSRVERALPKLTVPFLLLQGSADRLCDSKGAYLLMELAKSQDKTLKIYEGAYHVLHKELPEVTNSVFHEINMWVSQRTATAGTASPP
T2 sequence (O35678 whole entry): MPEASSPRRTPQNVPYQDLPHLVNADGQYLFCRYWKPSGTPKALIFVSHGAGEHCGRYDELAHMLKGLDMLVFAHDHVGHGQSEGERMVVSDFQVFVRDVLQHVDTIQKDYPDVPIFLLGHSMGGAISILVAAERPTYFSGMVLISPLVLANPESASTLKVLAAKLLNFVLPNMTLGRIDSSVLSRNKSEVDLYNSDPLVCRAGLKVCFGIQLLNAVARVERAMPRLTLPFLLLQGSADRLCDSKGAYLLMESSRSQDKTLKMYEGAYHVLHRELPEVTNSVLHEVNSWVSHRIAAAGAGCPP

| SMILES | IC50 (FAAH [1]) | IC50 (MAGL [5]) | other results |
| --- | --- | --- | --- |
| O=C(O)c1ccn(C(=O)N2CCC3(CCCN3Cc3ccc(C(F)(F)F)cc3Cl)CC2)n1 [Example 76, 1-(1-(2-chloro-4-(trifluoromethyl)-benzyl)-1,8-diazaspiro[4.5]-decane-8-carbonyl)-1H-pyrazole-3-carboxylic acid] | – | – | FAAH % inh. 1 μM (human) (FAAH [1]): D (% inhibition is greater than or equal to 0% and less than 25%); FAAH % inh. 1 μM (mouse) (FAAH [2]): D (% inhibition is greater than or equal to 0% and less than 25%); MAGL % inh. 5 mg/kg (mouse) (MAGL [3]): D (% inhibition is greater than or equal to 0% and less than 25%); FAAH % inh. 5 mg/kg (mouse) (FAAH [4]): D (% inhibition is greater than or equal to 0% and less than 25%); MAGL % inh. 1 μM (human) (MAGL [5]): A (% inhibition is greater than or equal to 75%); MAGL % inh. 1 μM (mouse) (MAGL [6]): A (% inhibition is greater than or equal to 75%) |
| O=C(O)c1ccn(C(=O)N2CCC3(CCN(Cc4cc(F)cc(C(F)(F)F)c4)C3)CC2)n1 [Example 152, 1-(2-(3-fluoro-5-(trifluoromethyl)-benzyl)-2,8-diazaspiro[4.5]-decane-8-carbonyl)-1H-pyrazole-3-carboxylic acid] | – | – | FAAH % inh. 1 μM (human) (FAAH [1]): D (% inhibition is greater than or equal to 0% and less than 25%); FAAH % inh. 1 μM (mouse) (FAAH [2]): B (% inhibition is greater than or equal to 50% and less than 75%); MAGL % inh. 1 μM (human) (MAGL [5]): A (% inhibition is greater than or equal to 75%); MAGL % inh. 1 μM (mouse) (MAGL [6]): A (% inhibition is greater than or equal to 75%) |
| O=C(O)c1ccn(C(=O)N2CCC3(CCN(Cc4cccc(OC(F)(F)F)c4)C3)CC2)n1 [Example 153, 1-(2-(3-(trifluoromethoxy)-benzyl)-2,8-diazaspiro[4.5]-decane-8-carbonyl)-1H-pyrazole-3-carboxylic acid] | – | – | FAAH % inh. 1 μM (human) (FAAH [1]): D (% inhibition is greater than or equal to 0% and less than 25%); FAAH % inh. 1 μM (mouse) (FAAH [2]): C (% inhibition is greater than or equal to 25% and less than 50%); MAGL % inh. 1 μM (human) (MAGL [5]): A (% inhibition is greater than or equal to 75%); MAGL % inh. 1 μM (mouse) (MAGL [6]): A (% inhibition is greater than or equal to 75%) |
| NC(=O)c1ccn(C(=O)N2CCC3(CCN(Cc4ccc(N5CCCC5)cc4C(F)(F)F)C3)CC2)n1 [Example 195, 1-(2-(4-(pyrrolidin-1-yl)-2-(trifluoromethyl)-benzyl)-2,8-diazaspiro[4.5]-decane-8-carbonyl)-1H-pyrazole-3-carboxamide] | < 0.1 µM | < 0.1 µM | – |
| NC(=O)c1ccn(C(=O)N2CCC3(CCN(Cc4cc(Cl)cc(C(F)(F)F)c4)C3)CC2)n1 [Example 196, 1-(2-(3-chloro-5-(trifluoromethyl)-benzyl)-2,8-diazaspiro[4.5]-decane-8-carbonyl)-1H-pyrazole-3-carboxamide] | < 0.1 µM | < 0.1 µM | – |
| NC(=O)c1ccn(C(=O)N2CCN(Cc3cccc(Oc4ccccc4)c3)CC2)n1 [Example 198, 1-(4-(3-phenoxybenzyl)-piperazine-1-carbonyl)-1H-pyrazole-3-carboxamide] | – | – | inhibition at 1 µM (FAAH [1]; read-out: FAAH % inh. 1 μM (human)): > 75%; inhibition at 1 µM (MAGL [5]; read-out: MAGL % inh. 1 μM (human)): > 75% |
| CN(Cc1ccccc1Cl)[C@H]1C[C@@H]2CN(C(=O)n3ccc(C(N)=O)n3)C[C@@H]2C1 [Example 200, 1-(trans-5-((2-chlorobenzyl)-(methyl)amino)-octahydrocyclopenta-[c]pyrrole-2-carbonyl)-1H-pyrazole-3-carboxamide] | < 0.1 µM | < 0.1 µM | – |
| NC(=O)c1ccn(C(=O)N2CC3CN(Cc4cc(Cl)cc(C(F)(F)F)c4)CC3C2)n1 (stereo not drawn) [Example 201, 1-(5-(3-chloro-5-(trifluoromethyl)-benzyl)-octahydropyrrolo-[3,4-c]pyrrole-2-carbonyl)-1H-pyrazole-3-carboxamide] | < 0.1 µM | < 0.1 µM | – |
| NC(=O)c1ccn(C(=O)N2CC3CN(Cc4cc(Cl)ccc4Cl)CC3C2)n1 (stereo not drawn) [Example 202, 1-(5-(2,5-dichlorobenzyl)-octahydropyrrolo-[3,4-c]pyrrole-2-carbonyl)-1H-pyrazole-3-carboxamide] | < 0.1 µM | < 0.1 µM | – |
| CN(Cc1ccccc1C(F)(F)F)[C@@H]1C[C@@H]2CN(C(=O)n3ccc(C(N)=O)n3)C[C@@H]2C1 [Example 204, 1-(cis-5-(methyl(2-(trifluoromethyl)-benzyl)amino)-octahydrocyclopenta-[c]pyrrole-2-carbonyl)-1H-pyrazole-3-carboxamide] | < 0.1 µM | < 0.1 µM | – |
| CN(Cc1ccc(C(F)(F)F)cc1)[C@@H]1C[C@@H]2CN(C(=O)n3ccc(C(N)=O)n3)C[C@@H]2C1 [Example 205, 1-(cis-5-(methyl(4-(trifluoromethyl)-benzyl)amino)-octahydrocyclopenta-[c]pyrrole-2-carbonyl)-1H-pyrazole-3-carboxamide] | < 0.1 µM | < 0.1 µM | – |
| CN(Cc1ccccc1Cl)[C@@H]1C[C@@H]2CN(C(=O)n3ccc(C(N)=O)n3)C[C@@H]2C1 [Example 206, 1-(cis-5-((2-chlorobenzyl)-(methyl)amino)-octahydrocyclopenta-[c]pyrrole-2-carbonyl)-1H-pyrazole-3-carboxamide] | < 0.1 µM | < 0.1 µM | – |
| NC(=O)c1ccn(C(=O)N2CC3CN(Cc4cccc(C(F)(F)F)c4)CC3C2)n1 (stereo not drawn) [Example 208, 1-(5-(3-(trifluoromethyl)-benzyl)-octahydropyrrolo-[3,4-c]pyrrole-2-carbonyl)-1H-pyrazole-3-carboxamide] | < 0.1 µM | < 0.1 µM | – |
| O=C(O)c1ccn(C(=O)N2CCC3(CCCN3C(=O)c3ccc(C(F)(F)F)cc3N3CCCC3)CC2)n1 [Example 403, 1-(1-(2-(pyrrolidin-1-yl)-4-(trifluoromethyl)-benzoyl)-1,8-diazaspiro[4.5]-decane-8-carbonyl)-1H-pyrazole-3-carboxylic acid] | – | – | inhibition at 5 mg/kg (FAAH [7]): 0 to 25% |
| O=C(O)c1ccn(C(=O)N2CCC3(CCCN3Cc3ccc(C(F)(F)F)cc3N3CCCCC3)CC2)n1 [Example 404, 1-(1-(2-(piperidin-1-yl)-4-(trifluoromethyl)-benzyl)-1,8-diazaspiro[4.5]-decane-8-carbonyl)-1H-pyrazole-3-carboxylic acid] | – | – | inhibition at 5 mg/kg (FAAH [7]): 0 to 25% |
